These are literature values, as cited in US11864558B2, “Herbicidal compositions containing N-phosphonomethyl glycine and an auxin herbicide” (Monsanto Technology LLC, priority 2004, dated 2024).

For this series the following is noted: acid form; 25° C.

Take `O=C(O)CNCP(=O)(O)O` [glyphosate, N-phosphonomethylglycine]: the solubility in water is reported as 1.16 % by weight.
